Data from patent US8258140B2 (Astrazeneca AB, priority 2009, dated 2012).

Target: T1, Androgen Receptor (AR) in the LNCaP prostate carcinoma cell line (Homo sapiens, UniProt P10275, T878A)
T1 construct: cell based immuno-fluorescence assay using the LNCaP prostate epithelial cell line; host or cells: LNCaP clone FGC
T1 sequence (P10275 1-920 T878A): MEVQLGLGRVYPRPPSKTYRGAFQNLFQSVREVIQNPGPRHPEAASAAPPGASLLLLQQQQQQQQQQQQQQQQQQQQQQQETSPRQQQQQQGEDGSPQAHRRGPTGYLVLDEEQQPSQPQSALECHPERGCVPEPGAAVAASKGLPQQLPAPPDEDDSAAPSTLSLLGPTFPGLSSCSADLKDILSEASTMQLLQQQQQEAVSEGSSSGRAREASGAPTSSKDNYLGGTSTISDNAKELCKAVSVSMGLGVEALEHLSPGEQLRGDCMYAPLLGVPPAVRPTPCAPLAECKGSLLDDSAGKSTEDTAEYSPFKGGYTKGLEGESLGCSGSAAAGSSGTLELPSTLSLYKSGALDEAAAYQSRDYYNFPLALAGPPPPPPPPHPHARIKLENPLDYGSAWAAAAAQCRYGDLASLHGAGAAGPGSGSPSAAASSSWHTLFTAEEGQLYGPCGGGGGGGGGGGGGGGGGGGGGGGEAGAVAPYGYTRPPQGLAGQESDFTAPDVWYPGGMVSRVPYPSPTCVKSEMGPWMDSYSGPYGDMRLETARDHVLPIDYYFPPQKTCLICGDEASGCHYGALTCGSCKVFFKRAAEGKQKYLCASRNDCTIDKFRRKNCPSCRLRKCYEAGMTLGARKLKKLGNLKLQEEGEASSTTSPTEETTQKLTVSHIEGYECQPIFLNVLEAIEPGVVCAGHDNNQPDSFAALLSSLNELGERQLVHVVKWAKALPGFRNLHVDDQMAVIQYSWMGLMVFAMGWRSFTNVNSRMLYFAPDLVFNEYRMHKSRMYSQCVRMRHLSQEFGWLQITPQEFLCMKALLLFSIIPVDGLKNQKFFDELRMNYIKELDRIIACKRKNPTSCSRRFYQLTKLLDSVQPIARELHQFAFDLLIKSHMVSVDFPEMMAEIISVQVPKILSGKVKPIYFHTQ
Assay: LNCaP Androgen Receptor Down-Regulation Cell Assay (immunofluorescence end point)
Assay type: cell-based
Details: LNCaP cells, compound incubation 20-22 hours, concentration giving 50% reduction of the AR signal
Protocol: The ability of compounds to reduce Androgen Receptor (AR) numbers was assessed in a cell based immuno-fluorescence assay using the LNCaP prostate epithelial cell line.
This immunofluorescence end point assay measures the ability of a test compound to down-regulate and reduce measured levels of the AR in the LNCaP prostate carcinoma cell line (LNCaP clone FGC (CRL-1740) obtained from the American Type Culture Collection (ATCC)).
LNCaP cells were cultured in Growth Medium (phenol red free Roswell Park Memorial Institute (RPMI) 1640 (Invitrogen Code no. 11835-063) containing 2 mM L-Glutamine (Invitrogen Code no. 25030-024) and 1% (v/v) Penicillin/Streptomycin (10000 units/ml Penicillin and 10000 μg/ml of Streptomycin utilising penicillin G (sodium salt) and streptomycin sulphate: prepared in normal saline, Invitrogen Code no. 15140122) and 10% (v/v) foetal bovine serum (FBS)) in a 5% CO2 air incubator at 37° C. Cells for assay were harvested from T175 stock flasks by washing once in PBS (phosphate buffered saline, pH 7.4) (Invitrogen Code no. 14190-094) and harvested using 5 mls of 1× Trypsin/ethylaminediaminetetraacetic acid (EDTA) (10× Trypsin-EDTA, 5.0 g/L Trypsin, 2.0 g/L of EDTA.4Na and 8.5 g/L of NaCl, without Phenol Red, Invitrogen Code no. 15400-054) diluted in PBS solution. A 5 ml volume of Growth Medium was added to each flask (as above except that 5% (v/v) charcoal stripped FBS (HyClone Code no. SH30068.03) was included instead of 10% (v/v) FBS). Cells were syringed at least twice using a sterile 18 G×1.5″ (1.2×40 mm) broad gauge needle and cell density was measured using a haemocytometer. Cells were further diluted in Growth Medium plus 5% (v/v) charcoal stripped FBS and seeded at a density of 6.5×10^3 cells per well (in 90 ul) into transparent, black, tissue culture treated 96 well plates (Packard, No. 6005182).
Test data reported herein was generated using two different compounds preparation and dosing methods. In method (1) a 10 mM compound stock solution in 100% (v/v) DMSO was serially diluted in 4-fold steps in 100% (v/v) DMSO using a Thermo Scientific Matrix SerialMate. The diluted compounds were then further diluted 1 in 30 in assay media using a Thermo Scientific Matrix PlateMate and a 10 μl aliquot of this dilution was dosed to cells manually using a multi-channel pipette. In method (2) starting with a 10 mM compound stock solution, the Labcyte Echo 550 was used to generate a compound concentration response set diluted in 30 μl of assay media. The Echo 550 is a liquid handler that uses acoustic technology to perform direct microplate-to-microplate transfers of DMSO compound solutions. The system can be programmed to transfer volumes as low as 2.5 nL in multiple increments between microplates and in so doing generates a serial dilution of compound which is then back-filled to normalise the DMSO concentration across the dilution range. A 10 μl volume of diluted compound is then dosed to cells using a Thermo Scientific Matrix PlateMate.
Plates were incubated overnight at 37° C., 5% CO2. Wells were then dosed with compound prepared by one of the 2 methods above and further incubated for 20-22 hours at 37° C., 5% CO2. Plates were fixed by the addition of 20 μl of 10% (v/v) formaldehyde solution (in PBS) to each well (final formaldehyde conc.=1.67% (v/v)) and left at room temperature for 10 mins. This fixative solution was removed and cells were washed with 250 μl of PBS/0.05% (v/v) Tween 20 (PBST) using an automated plate washer. This process was then repeated twice more.
Immunostaining was performed at room temperature. Cells were permeabilised by the addition of 35 μl of PBS containing 0.5% Tween 20 and incubated for 1 hour at room temperature. Permeabilisation solution was removed and cells were washed with 250 μl of PBST using an automated plate washer. This process was then repeated twice more. […]

Molecule | IC50
CS(=O)(=O)N1CCN(CCOc2ccc(N3CCN(C4=Nn5c(nnc5C(F)(F)F)CC4)CC3)cc2)CC1 [Example 34, 6-[4-(4-{2-[4-(methylsulfonyl)piperazin-1-yl]ethoxy}phenyl)piperazin-1-yl]-3-(trifluoromethyl)-7,8-dihydro[1,2,4]triazolo[4,3-b]pyridazine] | 23 µM
CCCCC(=O)N1CCN(CCOc2ccc(C3CCN(C4=Nn5c(nnc5C(F)(F)F)CC4)CC3)cc2)CC1 [Example 25, 6-(4-{4-[2-(4-pentanoylpiperazin-1-yl)ethoxy]phenyl}piperidin-1-yl)-3-(trifluoromethyl)-7,8-dihydro[1,2,4]triazolo[4,3-b]pyridazine] | 0.93 µM
CCCCN(C)C(=O)COc1ccc(C2CCN(C3=Nn4c(nnc4C(F)(F)F)CC3)CC2)cc1 [Example 22, N-butyl-N-methyl-2-(4-{1-[3-(trifluoromethyl)-7,8-dihydro[1,2,4]triazolo[4,3-b]pyridazin-6-yl]piperidin-4-yl}phenoxy)acetamide] | 0.46 µM
6-(4-{4-[2-(1H-imidazol-1-yl)ethoxy]phenyl}piperazin-1-yl)-3-(trifluoromethyl)-7,8-dihydro[1,2,4]triazolo[4,3-b]pyridazine [Example 38] | 7.8 µM
FC(F)(F)c1nnc2n1N=C(N1CCC(c3c[nH]c4ccccc34)CC1)CC2 [Example 3, 6-[4-(1H-indol-3-yl)piperidin-1-yl]-3-(trifluoromethyl)-7,8-dihydro[1,2,4]triazolo[4,3-b]pyridazine] | 1.2 µM
FC(F)(F)CCCOc1ccc(C2CCN(C3=Nn4c(nnc4C(F)(F)F)CC3)CC2)cc1 [Example 35, 6-{4-[4-(4,4,4-trifluorobutoxy)phenyl]piperidin-1-yl}-3-(trifluoromethyl)-7,8-dihydro[1,2,4]triazolo[4,3-b]pyridazine] | 2.3 µM
FC(F)(F)c1nnc2n1N=C(N1CC=C(c3c[nH]c4ncccc34)CC1)CC2 [Example 17, 6-[4-(1H-pyrrolo[2,3-b]pyridin-3-yl)-3,6-dihydropyridin-1(2H)-yl]-3-(trifluoromethyl)-7,8-dihydro[1,2,4]triazolo[4,3-b]pyridazine] | 4.4 µM
CCN1CCN(CCOc2ccc(C3CCN(C4=Nn5c(nnc5C(F)(F)F)CC4)CC3)cc2)CC1=O [Example 46, 1-ethyl-4-[2-(4-{1-[3-(trifluoromethyl)-7,8-dihydro[1,2,4]triazolo[4,3-b]pyridazin-6-yl]piperidin-4-yl}phenoxy)ethyl]piperazin-2-one] | 1.5 µM
CN(CCO)C(=O)CCCOc1ccc(C2CCN(C3=Nn4c(nnc4C(F)(F)F)CC3)CC2)cc1 [Example 24] | 2.5 µM
CC(=O)N1CCCN(CCOc2ccc(C3CCN(C4=Nn5c(nnc5C(F)(F)F)CC4)CC3)cc2)CC1 [Example 48, 6-(4-{4-[2-(4-acetyl-1,4-diazepan-1-yl)ethoxy]phenyl}piperidin-1-yl)-3-(trifluoromethyl)-7,8-dihydro[1,2,4]triazolo[4,3-b]pyridazine] | 0.7 µM
FC(F)(F)c1nnc2n1N=C(N1CCN(Cc3cccc(Cl)c3)CC1)CC2 [Example 7, 6-[4-(3-chlorobenzyl)piperazin-1-yl]-3-(trifluoromethyl)-7,8-dihydro[1,2,4]triazolo[4,3-b]pyridazine] | 2.9 µM
FC(F)(F)c1nnc2n1N=C(N1CCC(c3c[nH]c4ncccc34)CC1)CC2 [Example 18, 6-[4-(1H-pyrrolo[2,3-b]pyridin-3-yl)piperidin-1-yl]-3-(trifluoromethyl)-7,8-dihydro[1,2,4]triazolo[4,3-b]pyridazine] | 3.2 µM
CCCCC(=O)N1CCN(CCCOc2ccc(N3CCN(C4=Nn5c(nnc5C(F)(F)F)CC4)CC3)cc2)CC1 [Example 30, 6-(4-{4-[3-(4-pentanoylpiperazin-1-yl)propoxy]phenyl}piperazin-1-yl)-3-(trifluoromethyl)-7,8-dihydro[1,2,4]triazolo[4,3-b]pyridazine] | 6.7 µM
CS(=O)(=O)N1CCN(CCCOc2ccc(C3CCN(C4=Nn5c(nnc5C(F)(F)F)CC4)CC3)cc2)CC1 [Example 28, 6-[4-(4-{3-[4-(methylsulfonyl)piperazin-1-yl]propoxy}phenyl)piperidin-1-yl]-3-(trifluoromethyl)-7,8-dihydro[1,2,4]triazolo[4,3-b]pyridazine] | 1 µM
FC(F)(F)c1ccn(CCOc2ccc(N3CCN(C4=Nn5c(nnc5C(F)(F)F)CC4)CC3)cc2)n1 [Example 40, 3-(trifluoromethyl)-6-[4-(4-{2-[3-(trifluoromethyl)-1H-pyrazol-1-yl]ethoxy}phenyl)piperazin-1-yl]-7,8-dihydro[1,2,4]triazolo[4,3-b]pyridazine] | 1.5 µM
O=C1CN(CCOc2ccc(C3CCN(C4=Nn5c(nnc5C(F)(F)F)CC4)CC3)cc2)CCN1C1CC1 [Example 47, 1-cyclopropyl-4-[2-(4-{1-[3-(trifluoromethyl)-7,8-dihydro[1,2,4]triazolo[4,3-b]pyridazin-6-yl]piperidin-4-yl}phenoxy)ethyl]piperazin-2-one] | 1.4 µM
Cn1nccc1CCOc1ccc(C2(O)CCN(C3=Nn4c(nnc4C(F)(F)F)CC3)CC2)cc1 [Example 36, 4-{4-[2-(1-methyl-1H-pyrazol-5-yl)ethoxy]phenyl}-1-[3-(trifluoromethyl)-7,8-dihydro[1,2,4]triazolo[4,3-b]pyridazin-6-yl]piperidin-4-ol] | 4.5 µM
CCCCC(=O)N1CCN(CCCOc2ccc(C3CCN(C4=Nn5c(nnc5C(F)(F)F)CC4)CC3)cc2)CC1 [Example 27, 6-(4-{4-[3-(4-pentanoylpiperazin-1-yl)propoxy]phenyl}piperidin-1-yl)-3-(trifluoromethyl)-7,8-dihydro[1,2,4]triazolo[4,3-b]pyridazine] | 0.67 µM
COCCN(C)C(=O)COc1ccc(C2CCN(C3=Nn4c(nnc4C(F)(F)F)CC3)CC2)cc1 [Example 19, N-(2-methoxyethyl)-N-methyl-2-(4-{1-[3-(trifluoromethyl)-7,8-dihydro[1,2,4]triazolo[4,3-b]pyridazin-6-yl]piperidin-4-yl}phenoxy)acetamide] | 2.9 µM
